In patent publication US9637543B2, “HER3 antibodies and uses thereof” (THE UAB RESEARCH FOUNDATION, priority 2011, dated 2017):
Entries after “also recorded” stand apart in the source; their conditions may differ.

Tests used:
[1] = test system: N87 human gastric cancer xenograft; test: N87 human gastric cancer xenograft model; format: in vivo; conditions: lapatinib alone versus antibodies alone
HER2 [2] = molecular target: T1, HER2 (Homo sapiens, UniProt P04626); test: HER2 autophosphorylation in pancreatic cancer cell lines; format: cell-based; design: endogenous in cells; conditions: single agents
T1 sequence (P04626 23-1255): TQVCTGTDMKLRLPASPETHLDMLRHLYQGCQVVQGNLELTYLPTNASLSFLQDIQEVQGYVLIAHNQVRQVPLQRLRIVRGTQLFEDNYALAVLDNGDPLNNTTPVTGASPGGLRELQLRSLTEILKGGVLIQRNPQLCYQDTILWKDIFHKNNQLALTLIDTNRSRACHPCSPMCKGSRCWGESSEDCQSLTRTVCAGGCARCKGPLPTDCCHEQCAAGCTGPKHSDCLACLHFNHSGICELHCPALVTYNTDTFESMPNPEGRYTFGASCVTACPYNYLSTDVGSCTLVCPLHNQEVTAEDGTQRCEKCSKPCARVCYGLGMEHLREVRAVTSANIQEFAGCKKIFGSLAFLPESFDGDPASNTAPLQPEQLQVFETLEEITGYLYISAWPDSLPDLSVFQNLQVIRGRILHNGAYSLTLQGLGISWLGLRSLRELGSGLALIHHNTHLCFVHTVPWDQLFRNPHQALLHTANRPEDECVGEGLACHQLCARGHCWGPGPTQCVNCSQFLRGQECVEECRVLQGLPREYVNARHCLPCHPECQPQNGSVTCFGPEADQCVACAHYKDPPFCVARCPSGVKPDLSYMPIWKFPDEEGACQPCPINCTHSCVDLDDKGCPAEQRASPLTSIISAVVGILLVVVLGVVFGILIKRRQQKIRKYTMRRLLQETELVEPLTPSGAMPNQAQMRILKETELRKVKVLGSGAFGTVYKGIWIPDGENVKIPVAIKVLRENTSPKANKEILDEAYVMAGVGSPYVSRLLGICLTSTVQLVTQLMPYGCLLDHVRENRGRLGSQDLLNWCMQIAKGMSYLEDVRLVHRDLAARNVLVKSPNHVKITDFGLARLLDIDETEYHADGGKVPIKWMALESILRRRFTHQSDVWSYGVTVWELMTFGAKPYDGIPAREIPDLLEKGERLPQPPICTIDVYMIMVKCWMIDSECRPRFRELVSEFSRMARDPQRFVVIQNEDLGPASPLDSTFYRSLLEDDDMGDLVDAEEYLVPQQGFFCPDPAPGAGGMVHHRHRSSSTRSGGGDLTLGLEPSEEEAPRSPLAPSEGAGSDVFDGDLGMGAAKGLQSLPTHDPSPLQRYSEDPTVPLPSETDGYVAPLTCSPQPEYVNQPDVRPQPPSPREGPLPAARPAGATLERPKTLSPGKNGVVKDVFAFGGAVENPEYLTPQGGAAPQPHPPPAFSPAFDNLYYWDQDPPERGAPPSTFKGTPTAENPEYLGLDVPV

HER2 [3] = molecular target: T1, HER2; test: NRG1-induced phosphorylation of HER2 in pancreatic cancer cell lines; format: cell-based; design: endogenous in cells
HER2 [4] = molecular target: T1, HER2; test: HER2 tyrosine phosphorylation ELISA, antibodies with or without lapatinib; format: cell-based; design: endogenous in cells; host or cells: N87 gastric cancer cells; ZR75-30 breast cancer cells; conditions: 24 hours
HER3 [5] = molecular target: T2, HER3 (Homo sapiens, UniProt P21860); test: HER3 autophosphorylation in pancreatic cancer cell lines; format: cell-based; design: endogenous in cells; host or cells: N87, BT474, ZR75-30, Panc 2.03, A549 and a panel of human cancer cell lines; conditions: single agents
T2 sequence (P21860 20-1342): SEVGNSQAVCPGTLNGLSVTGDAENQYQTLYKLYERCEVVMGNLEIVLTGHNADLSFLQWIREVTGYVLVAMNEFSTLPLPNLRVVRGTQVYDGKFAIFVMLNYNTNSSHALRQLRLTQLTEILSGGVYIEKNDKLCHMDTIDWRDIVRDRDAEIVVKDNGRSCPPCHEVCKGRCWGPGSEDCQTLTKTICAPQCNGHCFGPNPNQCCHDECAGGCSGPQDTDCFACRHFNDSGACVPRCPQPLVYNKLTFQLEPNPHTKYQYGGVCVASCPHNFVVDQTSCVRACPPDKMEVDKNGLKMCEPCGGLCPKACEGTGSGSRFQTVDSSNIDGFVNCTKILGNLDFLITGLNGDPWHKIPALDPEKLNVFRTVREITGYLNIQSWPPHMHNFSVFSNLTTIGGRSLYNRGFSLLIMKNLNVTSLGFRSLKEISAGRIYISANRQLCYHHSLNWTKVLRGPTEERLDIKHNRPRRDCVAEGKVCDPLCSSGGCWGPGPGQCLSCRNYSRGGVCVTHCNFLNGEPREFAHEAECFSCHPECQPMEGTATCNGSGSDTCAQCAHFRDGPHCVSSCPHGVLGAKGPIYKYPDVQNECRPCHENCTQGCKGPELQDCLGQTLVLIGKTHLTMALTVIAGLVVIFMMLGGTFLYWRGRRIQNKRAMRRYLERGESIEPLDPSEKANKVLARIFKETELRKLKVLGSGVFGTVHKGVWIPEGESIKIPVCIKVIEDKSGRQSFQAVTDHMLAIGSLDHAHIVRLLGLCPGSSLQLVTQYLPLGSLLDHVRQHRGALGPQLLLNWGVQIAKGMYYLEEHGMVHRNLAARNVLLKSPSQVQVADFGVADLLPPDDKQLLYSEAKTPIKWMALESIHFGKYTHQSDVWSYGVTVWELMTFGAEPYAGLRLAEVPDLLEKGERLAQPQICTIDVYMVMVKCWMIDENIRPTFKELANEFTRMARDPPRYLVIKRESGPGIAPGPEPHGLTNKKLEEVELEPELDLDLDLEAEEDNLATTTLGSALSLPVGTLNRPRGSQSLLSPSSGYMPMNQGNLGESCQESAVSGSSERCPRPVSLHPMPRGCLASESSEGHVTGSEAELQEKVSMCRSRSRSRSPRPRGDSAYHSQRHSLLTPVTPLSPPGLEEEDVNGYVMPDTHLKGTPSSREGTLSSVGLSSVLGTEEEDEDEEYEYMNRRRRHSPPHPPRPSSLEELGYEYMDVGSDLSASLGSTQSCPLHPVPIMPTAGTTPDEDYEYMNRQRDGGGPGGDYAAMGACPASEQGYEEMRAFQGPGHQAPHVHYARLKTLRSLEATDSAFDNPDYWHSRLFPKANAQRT

HER3 [6] = molecular target: T2, HER3; test: NRG1-induced phosphorylation of HER3 in pancreatic cancer cell lines; format: cell-based; design: endogenous in cells; host or cells: N87, BT474, ZR75-30, Panc 2.03, A549 and a panel of human cancer cell lines

Structure (SMILES)	tumor volume [1]	autophosphorylation of HER2 (HER2 [2])	NRG1-induced phosphorylation of HER2 (HER2 [3])	tyrosine phosphorylation level of HER2 (HER2 [4]; N87 cells, 100 nM lapatinib with the antibodies)	tyrosine phosphorylation levels of HER2 (HER2 [4]; ZR75-30 cells, 100 nM lapatinib with the antibodies alone or in combination)	autophosphorylation of HER3 (HER3 [5])	NRG1-induced phosphorylation of HER3 (HER3 [6])
CS(=O)(=O)CCNCc1ccc(-c2ccc3ncnc(Nc4ccc(OCc5cccc(F)c5)c(Cl)c4)c3c2)o1 [lapatinib, reference compound]	reduced tumor volume more than the administration of the combination of 1A5 and 3D4 antibodies	partially inhibited autophosphorylation of HER2	inhibited NRG1-induced phosphorylation of HER2; also recorded: inhibited NRG-1-induced phosphorylation of HER2	reduced	reduced tyrosine phosphorylation levels	but not erlotinib and lapatinib inhibited autophosphorylation of HER3	only partially inhibited NRG1-induced phosphorylation of HER3; also recorded: partially reduced NRG-1-induced phosphorylation
C#Cc1cccc(Nc2ncnc3cc(OCCOC)c(OCCOC)cc23)c1 [erlotinib, reference compound]						but not erlotinib and lapatinib inhibited autophosphorylation of HER3	
